Results as given in patent US20100035843A1, “METHODS FOR ATTENUATING ALLERGEN-INDUCED AIRWAY HYPERREACTIVITY USING CD1D DEPENDENT ANTAGONISTS” (THE GENERAL HOSPITAL CORPORATION, priority 2007, published 2010).

How the values were obtained:
[1] = tested on: OVA-induced AHR; assay: OVA-induced model of airway hyperreactivity (AHR); assay type: in vivo, BALB/c mice; conditions: for number of cells (eosinophils, lymphocytes, macrophages) in BAL fluid: versus OVA-immunized control group, BAL 3 h after airway measurements (FIG. 2D); for histological examination of H&E-stained lung sections: OVA-immunized mice, compared with saline (negative) control (data not shown); for development of methacholine-induced AHR (PenH, whole-body plethysmograph): single dose 250 μg i.v., 1 day before OVA challenge, OVA-immunized mice (FIG. 2B)
Procedure: DPPE (250 μg) was injected i.v. on day 8 and AHR was measured on day 12. Reagents. Anti-CD3 mAb was purchased from BD PharMingen (San Diego, Calif.). α-Galactosylceramide (α-[…]7000) was purchased from Axxora LLC (San Diego, Calif.). DPPE-PEG. (1,2-Dipalmitoyl-sn-Glycero-3-Phosphoethanolamine-N-[Methoxy(Polyethylene glycol)-350]) (Ammonium Salt) (PEG350) was purchased from Avanti Polar Lipids, INC (Alabaster, Ala.). We thank A. Bendelac for the DN32.D3 hybridoma cells. To induce AHR, mice were immunized intraperitoneally with 50 μg of LPS free OVA (Worthington Biochemical Corp., NJ) in 2 mg of alum in volume of 0.5 ml. Ten days later mice were lightly anesthetized with methoxoflurane and challenged with i.n. OVA (50 μg) on 3 consecutive days. Induction of AHR and measurement of airway responsiveness-AHR responses were assessed by methacholine-induced airflow obstruction in conscious mice placed in a whole-body plethysmograph (Buxco Electronics, Troy, N.Y.) as described previously 15. In some experiments AHR was assessed by invasive measurement of airway resistance, in which anesthetized and tracheostomized mice were mechanically ventilated using a modified version of a described method 36. Aerosolized methacholine was administered for 20 breaths in increasing concentrations (1.25, 2.5, 5 and 10 mg/ml of methacholine). We continuously computed RL and Cdyn by fitting flow, volume and pressure to an equation of motion. Collection and analysis of BAL fluid-Mice were lethally anesthetized with phenobarbital 450 mg/kg i.p. The trachea was cannulated and the lungs were lavaged three times with 0.3 ml of PBS, and the collected fluid was pooled. Cell counts and analysis of the BAL was performed as described (15). […] In this model, an asthma-like phenotype with AHR, eosinophilic airway inflammation and mucus hypersecretion is induced by systemic sensitization with OVA followed by intrapulmonary challenge with OVA (FIG. 2A).

[2] = tested on: OVA-specific Th2 responses; assay: Restimulation of bronchial lymph node cells of treated mice with OVA in vitro, cytokine ELISA; assay type: in vivo, BALB/c mice
Procedure: Bronchial lymph nodes were removed from Peg treated or PBS treated mice and restimulated with 100 μg of OVA in vitro. After 72 hrs supernatants were collected and cytokine production analyzed by ELISA. ELISA data are representative of three separate experiments (n=4) and are shown as mean±SD for triplicate samples. Restimulation of lymph node cells in vitro. Cells isolated from lymph nodes of OVA-primed mice were restimulated in vitro (5×10^5 cells per well in a 96-well plate) with various concentrations of OVA. Supernatants were collected after 4 days and assayed for IL-4 and IFN-γ by ELISA as previously described (15). Cytokine ELISAs—Cytokine secretion following in vitro challenge with OVA and control peptides were determined by ELISA as described before (15). Briefly, the following monoclonal antibodies R4-6A2 and XMG1.2-biotin for IFN-γ and 11B11 and BVD6-24G2-biotin for IL-4 were used for capture and detection. […] Bronchial lymph nodes were removed from Peg treated or PBS treated mice and restimulated with 100 μg of OVA in vitro. After 72 hrs supernatants were collected and cytokine production analyzed by ELISA. ELISA data are representative of three separate experiments (n=4) and are shown as mean±SD for triplicate samples. Since treatment with DPPE-PEG350 inhibited the development of AHR, we next asked if administration of the CD1d-dependent antagonist prior to airway challenge altered systemic OVA-specific Th2 responses. Bronchial lymph node cells were isolated from OVA sensitized mice treated with either DPPE-PEG350 or PBS, and restimulated in vitro with 100 μg/ml of ovalbumin a day after induction of AHR. […] No OVA-specific cytokine secretion was seen if the animals had not been sensitized with OVA on day 0 (data not shown).

[3] = tested on: iNKT cell; conditions: references 2-5; cited from earlier work
[4] = tested on: CD1d; conditions: references 2-5; cited from earlier work
[5] = tested on: iNKT cell hybridoma line DN32; assay: DN32 NKT hybridoma activation by α-GalCer, IL-2 release read with CTLL-2 cells; assay type: cell-based; conditions: 200 μg/ml for 4 hours, then titrating α-GalCer 48 h; particularly at suboptimal α-GalCer (FIG. 1C)
Procedure: Culture supernatants were collected and IL-2 expression expression analyzed with IL-2 dependant cell line CTLL-2. Data are means±SD of triplicate cultures.
Phosphatidylethanolamine and DPPE-PEG bind to CD1d and prevent iNKT cell activation (2-5). To determine whether activation of iNKT cells by α-GalCer could specifically be inhibited by DPPE-PEG, splenocytes were incubated with α-GalCer (100 ng/ml) or plate-bound anti-CD3. […] FIGS. 1A and 1B show splenocyte cells (5×10^6/ml) pooled from BALB/cJ mice (n=4) that were cultured in anti-CD3 mAb (2 μg/ml)-precoated 24-well plates in complete RPMI±increasing concentrations of DPPE-PEG350, or that were cultured in 24-well plates in complete RPMI±α-GalCer (100 ng/ml)±increasing concentrations of DPPE-PEG350. After 48 h, supernatants were gathered and examined for IL-4 and INF-γ by ELISA. ELISA data are representative of three separate experiments each and are shown as mean±SD for triplicate samples. […] Culture supernatants were collected and IL-2 expression expression analyzed with IL-2 dependant cell line CTLL-2. Data are means±SD of triplicate cultures.
We also tested the ability of DPPE-PEG350 to block the iNKT cell hybridoma line DN32, activation by α-GalCer. DN32 cells were loaded with 200 μg/ml of DPPE-PEG, and stimulated with titrating dose of α-GalCer. […]

[6] = tested on: α-GalCer-stimulated iNKT cells; assay: Inhibition of in vitro iNKT activation: splenocytes stimulated with α-GalCer, cytokine ELISA; assay type: cell-based, BALB/cJ mice
Procedure: (§1) FIGS. 1A and 1B show splenocyte cells (5×10^6/ml) pooled from BALB/cJ mice (n=4) that were cultured in anti-CD3 mAb (2 μg/ml)-precoated 24-well plates in complete RPMI±increasing concentrations of DPPE-PEG350, or that were cultured in 24-well plates in complete RPMI±α-GalCer (100 ng/ml)±increasing concentrations of DPPE-PEG350. After 48 h, supernatants were gathered and examined for IL-4 and INF-γ by ELISA. ELISA data are representative of three separate experiments each and are shown as mean±SD for triplicate samples.
(§2) Inhibition of in vitro iNKT activation with DPPE-PEG-Splenocytes cells (5×10^6/ml) pooled from BALB/cJ mice (n=4) were cultured in anti-CD3 mAb (2 μg/ml)-precoated 24-well plates in complete RPMI±increasing concentrations of DPPE-PEG350, or cultured in 24-well plates in complete RPMI±KRN7000 (100 ng/ml)±increasing concentrations of DPPE-PEG350. After 48 h, supernatants were gathered and examined for IL-4 and INF-γ by ELISA as described (35).
(§3) Phosphatidylethanolamine and DPPE-PEG bind to CD1d and prevent iNKT cell activation (2-5). To determine whether activation of iNKT cells by α-GalCer could specifically be inhibited by DPPE-PEG, splenocytes were incubated with α-GalCer (100 ng/ml) or plate-bound anti-CD3. […] Culture supernatants were collected and IL-2 expression expression analyzed with IL-2 dependant cell line CTLL-2. […]

[7] = tested on: contact hypersensitivity (CHS); conditions: Nieuwenhuis et al.; cited from earlier work
[8] = tested on: anti-CD3 activated T cells; assay: Splenocytes cultured on plate-bound anti-CD3 mAb, cytokine ELISA; assay type: cell-based, BALB/cJ mice; conditions: plate-bound anti-CD3 2 μg/ml, at concentrations that significantly inhibited α-GalCer-stimulated secretion
Procedure: as §1, §2, §3

[9] = bronchial lymph node cells, 100 μg/ml ovalbumin, versus PBS treated group (FIG. 3)

Compound	number of cells (eosinophils, lymphocytes, macrophages) in BAL fluid ([1]; 250 μg i.v.)	histological examination of H&E-stained lung sections [1]	development of methacholine-induced AHR (PenH, whole-body plethysmograph) [1]	development of OVA specific Th2 responses ([2]; bronchial lymph nodes restimulated with 100 μg of OVA, 72 hrs (FIG. 3))	iNKT cell activation [3]	binding to CD1d [4]	IL-2 release from DN32 iNKT cells [5]	AHR by direct measurement of airway resistance (RL) and dynamic compliance (Cdyn) ([1]; 250 μg i.v., anesthetized, tracheostomized, mechanically ventilated mice (FIG. 2C))	secretion of IL-4 by α-GalCer-stimulated iNKT cells ([6]; splenocytes, α-GalCer 100 ng/ml, increasing concentrations of DPPE-PEG, 48 h, ELISA (FIG. 1A/1B))	iNKT cells cytokine release compared to anti-CD3 activated T cells (preference) ([6]; α-GalCer-stimulated versus anti-CD3-stimulated splenocytes (FIGS. 1A and B))	IL-4 secretion to OVA recall [2, 9]	IL-5 secretion to OVA recall [2, 9]	IL-13 secretion to OVA recall [2, 9]	ova-specific secretion of IFN-γ after in vitro re-challenge ([2]; sensitized and DPPE-PEG treated animals)	dermatitis in the CHS model [7]	cytokine production by anti-CD3 activated T cells [8]
CCCCCCCCCCCCCCCC(=O)OC[C@H](COP(=O)(O)OCCN)OC(=O)CCCCCCCCCCCCCCC [DPPE, 1,2-Dipalmitoyl-sn-Glycero-3-Phosphoethanolamine]	almost completely abrogated	minimal mucus production and negligible cellular infiltration	completely inhibited	does not inhibit	–	–	–	–	–	–	–	–	–	–	–	–
Phosphatidylethanolamine [reference compound]	–	–	–	–	prevent	bind	–	–	–	–	–	–	–	–	–	–
1,2-Dipalmitoyl-sn-Glycero-3-Phosphoethanolamine-N-[Methoxy(Polyethylene glycol)-350] [DPPE-PEG350]	significantly reducing	no significant differences	completely prevented	–	prevent	bind	inhibited	confirmed	inhibited	preferentially inhibited	No significant difference	No significant difference	No significant difference	did not affect	blocked	no or minimal effect
